Measured values taken from PubChem BioAssay (NCI).
Several values for one entry are separate records, joined by “and”; a condition that tells them apart may be missing. Equal values may be shown once.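 Grown in 96-well plates, cells were treated for 48 hours with each compound at five concentrations. Insufficient inhibition: endpoint recorded as highest concentration tested. GI50: concentration for 50% inhibition of growth. TGI denotes the concentration required for complete inhibition of growth.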

Experiments:
Assay in all cases: NCI anticancer screen, dose series, 48 h
[1] = tested on: KM12 colon
[2] = tested on: LOX IMVI melanoma
[3] = tested on: MALME-3M melanoma
[4] = tested on: NCI-H23 lung
[5] = tested on: SF-268 CNS
[6] = tested on: SK-MEL-28 melanoma
[7] = tested on: SNB-75 CNS
[8] = tested on: BT-549 breast
[9] = tested on: DU-145 prostate
[10] = tested on: T-47D breast

Structure (SMILES) | TGI [1] | TGI [2] | TGI [3] | TGI [4] | TGI [5] | TGI [6] | TGI [7] | GI50 [1] | GI50 [2] | GI50 [3] | GI50 [4] | GI50 [5] | GI50 [6] | GI50 [7] | TGI [8] | TGI [9] | TGI [10] | GI50 [9] | GI50 [10] | GI50 [8]
CC1=Nc2ccccc2S/C1=C1/C=NC(=NC#N)N=C1C(=O)Nc1cccc(Cl)c1 | > 100 µM | > 100 µM | > 100 µM | > 100 µM | > 100 µM | > 100 µM | > 100 µM |  |  |  |  |  |  |  |  |  |  |  |  | 
CC(=O)[CH-]C(=O)c1ccccc1.CC(=O)[CH-]C(=O)c1ccccc1.Cl.[O-]CCc1ccccn1.[O-]CCc1ccccn1.[Ti+4] | > 100 µM | > 100 µM | 44.1 µM | 53.8 µM | 75.4 µM | 55.1 µM | 89.2 µM | 41.4 µM | 25.6 µM | 18.7 µM | 24.7 µM | 25.8 µM | 20.6 µM | 23.9 µM |  |  |  |  |  | 
COc1cc2c3c(c4ccc(O)cc4c2cc1OC)[C@@H](O)[C@@H]1CCCN1C3 | 0.00837 µM | 0.00339 µM | 0.00314 µM | 0.0558 µM | 0.0018 µM | < 0.001 µM |  |  |  |  |  |  |  |  | 0.027 µM | 0.0036 µM | 0.00216 µM |  |  | 
COc1cc2c(cc1O)CCN[C@@]21CS[C@H]2c3c(OC(C)=O)c(C)c4c(c3C(COC1=O)N1C2C2NC(Cc3cc(C)c(OC)c(O)c32)[C@@H]1O)OCO4 (some centres undefined) | 11.3 µM | 1970 ng/mL | 0.000506 ng/mL | 298 nM and 1.3e-07 µg/mL and 0.0045 µg/mL | < 10 nM and 4.8e-07 µg/mL and 0.0045 µg/mL | < 10 nM and 3.1e-07 µg/mL and 0.0045 µg/mL |  |  | 4.5 ng/mL | 0.000122 ng/mL | 4.5 ng/mL | 4.5 ng/mL |  | 4.5 ng/mL |  | 11 µM | 0.0453 µM |  |  | 
O=C1CCNC/C1=C\c1ccccc1 | 28.9 µM | 35.5 µM |  | 34.4 µM | 45 µM | 35.1 µM | > 100 µM |  |  |  |  |  |  |  |  |  |  |  |  | 
O=C1N(c2ccc(Cl)cc2)C(=O)C2(SC=NN2Cc2ccccc2)N1c1ccc(Cl)cc1 (centres undefined) | > 100 µM | > 100 µM | > 100 µM | > 100 µM | > 100 µM | > 100 µM | > 100 µM |  |  |  |  |  |  |  |  |  |  |  |  | 
N#C/C(=C/c1ccc([N+](=O)[O-])o1)c1ccccc1 | > 100 µM | > 100 µM | > 100 µM | > 100 µM | > 100 µM | > 100 µM | > 100 µM |  |  |  |  |  |  |  |  |  |  |  |  | 
Cc1ccc2nc(CN(CCN(Cc3nc4ccc(C)cc4[nH]3)Cc3nc4ccc(C)cc4[nH]3)Cc3nc4ccc(C)cc4[nH]3)[nH]c2c1 | 3.18 µM | 3.03 µM | 2.89 µM |  |  | 3.15 µM | 2.6 µM | 1.77 µM | 1.66 µM | 1.47 µM |  |  | 1.75 µM | 1.32 µM |  | 3.18 µM | 3.12 µM | 1.79 µM | 1.71 µM | 
COc1ccc([C@@H]2[C@@H](Cl)C(=O)N2c2cc(OC)c(OC)c(OC)c2)cc1C | 17.1 µM | 17 µM | 64.8 µM | > 100 µM | 25 µM | > 100 µM | 37.9 µM | 0.0419 µM | 0.0692 µM | 17.8 µM | 0.0853 µM | 0.137 µM | 11 µM | 0.0355 µM | 1.13 µM | 0.236 µM |  | 0.0405 µM |  | 0.0717 µM
COc1cc([C@H]2OC[C@@H]3C(c4cc(OC)c5c(c4)OCO5)OC[C@H]23)cc(OC)c1OC (some centres undefined) | > 100 µM | > 100 µM |  | > 100 µM | > 100 µM | > 100 µM | > 100 µM |  |  |  |  |  |  |  | > 100 µM | > 100 µM | > 100 µM |  |  | 
COC1=CC(=O)C2(C=C1OC)OC[C@H]1Oc3c(ccc4c3C=CC(C)(C)O4)C(=O)[C@H]12 (some centres undefined) | > 100 µM | > 100 µM | > 100 µM | 95.3 µM |  | > 100 µM | > 100 µM |  |  |  |  |  |  |  |  |  |  |  |  | 
COc1cc(O)c(C(=O)C2Cc3ccccc32)c(OC)c1 (centres undefined) | > 100 µM | > 100 µM | > 100 µM |  | > 100 µM |  | > 100 µM |  |  |  |  |  |  |  |  |  |  |  |  | 
COC(=O)CC(=O)OC1C[C@@H]2CCC3C(C)(C)CCC[C@]3(C)C23CC[C@@]1(C)C3 (some centres undefined) | 33.9 µM | 32.3 µM | 32.7 µM | 33.5 µM | 35.9 µM | 38.8 µM | 51.2 µM |  |  |  |  |  |  |  |  |  |  |  |  | 
CC(=O)OC1COC(N2C(=O)C(=O)c3ccccc32)C(OC(C)=O)C1OC(C)=O (centres undefined) | > 100 µM | > 100 µM | > 100 µM | > 100 µM | > 100 µM | > 100 µM | > 100 µM |  |  |  |  |  |  |  |  |  |  |  |  | 
O=[N+]([O-])c1ccc(N=P(c2ccccc2)(c2ccccc2)c2ccccc2)n2nnnc12 | > 100 µM | > 100 µM | > 100 µM | > 100 µM | > 100 µM | > 100 µM | 42.6 µM |  |  |  |  |  |  |  |  |  |  |  |  | 
O=C1c2c(c3c4ccccc4n(CC4CO4)c3c3[nH]c4ccccc4c23)C(=O)N1Cc1ccccc1 (centres undefined) | > 100 µM | > 100 µM | > 100 µM | > 100 µM | > 100 µM | > 100 µM |  |  |  |  |  |  |  |  |  |  |  |  |  | 
CCn1c(=O)nc2n(-c3ccc(SC)cc3)c3ccccc3nc-2c1=O | > 100 µM |  | > 100 µM | > 100 µM | > 100 µM | > 100 µM | > 100 µM |  |  |  |  |  |  |  |  |  |  |  |  | 
CO[C@H]1C[C@H](O[C@H]2CC[C@@]3(C)[C@H](CC[C@@H]4[C@@H]3CC[C@]3(C)[C@@H](C5=CC(=O)OC5)CC[C@]43O)C2)O[C@H](C)[C@H]1O | 0.371 µM | 0.0159 µM | 0.0113 µM | 0.0178 µM | 0.0188 µM | 0.137 µM | 0.17 µM |  |  |  |  |  |  |  | 0.0175 µM |  |  |  |  | 
CCOC(=O)C1=C(C)N(NC(=O)Nc2ccccc2)C2(N)N(NC(=O)Nc3ccccc3)C(C)=C(C(=O)OCC)C12C#N (centres undefined) |  | 34 µM | 30.6 µM | 43.9 µM | 42.8 µM | 32.1 µM | 36.6 µM |  |  |  |  |  |  |  |  |  |  |  |  | 
COc1ccccc1NC(=O)c1sc2ncn(CCOc3ccccc3)c(=O)c2c1C | > 50 µM | > 50 µM |  | > 50 µM | > 50 µM |  |  | 1.43 µM | 1.52 µM |  | 4.93 µM | 3.2 µM |  |  | > 50 µM | > 50 µM | > 50 µM | > 50 µM | > 50 µM | 26.7 µM
CCNC(=O)O/N=C1\CCC2[C@@H]3CC=C4C[C@@H](OC(=O)NCC)CC[C@]4(C)C3CC[C@]12C (some centres undefined) | 13.8 µM | 4.64 µM | 1.51 µM | 11.7 µM | 13 µM | 12.1 µM | 7.35 µM |  |  |  |  |  |  |  |  |  |  |  |  | 
CCOC(=O)C(Oc1ccc(OC)c2c1C(=O)CCC2)c1ccccc1 (centres undefined) | > 100 µM | > 100 µM | > 100 µM | > 100 µM | > 100 µM | > 100 µM |  |  |  |  |  |  |  |  |  |  |  |  |  | 
